Test results published in ChEMBL document CHEMBL5625218, “An overview of limonoid synthetic derivatives as promising bioactive molecules” (Eur J Med Chem, 2023).
In brackets after ≈: the same amount, converted by molar mass. Values belong to the molecule of their own block, whether it stands above or below them.

What was measured:
Tobacco mosaic virus [1] = assay: Antiviral activity against TMV assessed as protection effect by measuring inhibition rate at 0.5 mg/ml measured after 72 hrs relative to control; type: functional; design: scale not given: the % may be the effect or the level left
Tobacco mosaic virus [2] = assay: Antiviral activity against TMV assessed as curative effect by measuring inhibition rate at 0.5 mg/ml measured after 72 hrs relative to control; type: functional; design: scale not given: the % may be the effect or the level left
Tobacco mosaic virus [3] = assay: Antiviral activity against TMV assessed as inactivation effect by measuring inhibition rate at 0.5 mg/ml measured after 72 hrs relative to control; type: functional; design: scale not given: the % may be the effect or the level left
Staphylococcus aureus [4] = assay: Antibacterial activity against methicillin-resistant Staphylococcus aureus 17045463 assessed as reduction in bacterial growth incubated for 24 hrs by CLSI based Mueller-Hinton broth assay; type: functional
Staphylococcus aureus [5] = assay: Antibacterial activity against methicillin-resistant Staphylococcus aureus 18032913 assessed as reduction in bacterial growth incubated for 24 hrs by CLSI based Mueller-Hinton broth assay; type: functional
Staphylococcus aureus [6] = assay: Antibacterial activity against methicillin-resistant Staphylococcus aureus 15012406 assessed as reduction in bacterial growth incubated for 24 hrs by CLSI based Mueller-Hinton broth assay; type: functional
Staphylococcus aureus [7] = assay: Antibacterial activity against Staphylococcus aureus ATCC 25923 assessed as reduction in bacterial growth incubated for 24 hrs by CLSI based Mueller-Hinton broth assay; type: functional
Staphylococcus aureus [8] = assay: Antibacterial activity against methicillin-resistant Staphylococcus aureus 15019301 assessed as reduction in bacterial growth incubated for 24 hrs by CLSI based Mueller-Hinton broth assay; type: functional
Mus musculus [9] = assay: Antinociceptive activity in ip dosed mouse assessed as inhibition of acetic acid-induced abdominal constrictions by writhing test at 70 mg/ml relative to control; type: functional; design: scale not given: the % may be the effect or the level left
Mus musculus [10] = assay: Anti-inflammatory activity in mouse model of xylene-induced auricle edema assessed as inhibition of ear swelling at 70 mg/ml, IG pre-treated for 1 hr followed by xylene addition and measured after 1 hr relative to control; type: functional; design: scale not given: the % may be the effect or the level left; conditions: time 2 hrs
A549 = assay: Anticancer activity against human A549 cells assessed as reduction in cell viability incubated for 72 hrs by Alamar Blue assay; type: functional, cell-based; conditions: A549, 72 h
ES-2 = assay: Anticancer activity against human ES2 cells assessed as reduction in cell viability incubated for 72 hrs by Alamar Blue assay; type: functional, cell-based; conditions: ES-2, 72 h
HCT-116 = assay: Anticancer activity against human HCT-116 cells assessed as reduction in cell viability incubated for 72 hrs by MTT assay; type: functional, cell-based; conditions: HCT-116, 72 h
MDA-MB-231 = assay: Anticancer activity against human MDA-MB-231 cells assessed as reduction in cell viability incubated for 72 hrs by Alamar Blue assay; type: functional, cell-based; conditions: MDA-MB-231, 72 h
HepG2 = assay: Anticancer activity against human HepG2 cells assessed as reduction in cell viability incubated for 72 hrs by Alamar Blue assay; type: functional, cell-based; conditions: HepG2, 72 h
HOS = assay: Anticancer activity against human HOS cells assessed as reduction in cell viability incubated for 72 hrs by Alamar Blue assay; type: functional, cell-based
A 172 = assay: Anticancer activity against human A-172 cells assessed as reduction in cell viability incubated for 72 hrs by Alamar Blue assay; type: functional, cell-based; conditions: A 172, 72 h
Plasmodium falciparum = assay: Antiplasmodial activity against Plasmodium falciparum W2 infected in human erythrocytes assessed as reduction in parasite growth incubated for 48 hrs by YOYO-1 dye based flow cytometric analysis; type: functional, organism-based; conditions: W2, 48 h
Candida parapsilosis = assay: Antimicrobial activity Candida parapsilosis ATCC 22019 assessed as reduction in microbial growth incubated for 24 hrs by broth micro dilution method; type: functional; conditions: Lodderomyces parapsilosis
[11] = Antimicrobial activity Cryptococcus gattii VGI ATCC 2601 assessed as reduction in microbial growth incubated for 24 hrs by broth micro dilution method; type: functional
Diutina rugosa = assay: Antimicrobial activity Candida rugosa DSM 2031 assessed as reduction in microbial growth incubated for 24 hrs by broth micro dilution method; type: functional
Cryptococcus neoformans = assay: Antimicrobial activity Cryptococcus neoformans ATCC 28952 assessed as reduction in microbial growth incubated for 24 hrs by broth micro dilution method; type: functional
Candida tropicalis = assay: Antimicrobial activity against Candida tropicalis ATCC 18803 assessed as reduction in microbial growth incubated for 24 hrs by broth micro dilution method; type: functional
Candida albicans = assay: Antimicrobial activity against Candida albicans ATCC 10231 assessed as reduction in microbial growth incubated for 24 hrs by broth micro dilution method; type: functional
[12] = biological target: Voltage-gated inwardly rectifying potassium channel KCNH2 (Homo sapiens, UniProt Q12809); assay: Inhibition of hERG; type: toxicity
Chain of Voltage-gated inwardly rectifying potassium channel KCNH2 (Q12809 whole entry): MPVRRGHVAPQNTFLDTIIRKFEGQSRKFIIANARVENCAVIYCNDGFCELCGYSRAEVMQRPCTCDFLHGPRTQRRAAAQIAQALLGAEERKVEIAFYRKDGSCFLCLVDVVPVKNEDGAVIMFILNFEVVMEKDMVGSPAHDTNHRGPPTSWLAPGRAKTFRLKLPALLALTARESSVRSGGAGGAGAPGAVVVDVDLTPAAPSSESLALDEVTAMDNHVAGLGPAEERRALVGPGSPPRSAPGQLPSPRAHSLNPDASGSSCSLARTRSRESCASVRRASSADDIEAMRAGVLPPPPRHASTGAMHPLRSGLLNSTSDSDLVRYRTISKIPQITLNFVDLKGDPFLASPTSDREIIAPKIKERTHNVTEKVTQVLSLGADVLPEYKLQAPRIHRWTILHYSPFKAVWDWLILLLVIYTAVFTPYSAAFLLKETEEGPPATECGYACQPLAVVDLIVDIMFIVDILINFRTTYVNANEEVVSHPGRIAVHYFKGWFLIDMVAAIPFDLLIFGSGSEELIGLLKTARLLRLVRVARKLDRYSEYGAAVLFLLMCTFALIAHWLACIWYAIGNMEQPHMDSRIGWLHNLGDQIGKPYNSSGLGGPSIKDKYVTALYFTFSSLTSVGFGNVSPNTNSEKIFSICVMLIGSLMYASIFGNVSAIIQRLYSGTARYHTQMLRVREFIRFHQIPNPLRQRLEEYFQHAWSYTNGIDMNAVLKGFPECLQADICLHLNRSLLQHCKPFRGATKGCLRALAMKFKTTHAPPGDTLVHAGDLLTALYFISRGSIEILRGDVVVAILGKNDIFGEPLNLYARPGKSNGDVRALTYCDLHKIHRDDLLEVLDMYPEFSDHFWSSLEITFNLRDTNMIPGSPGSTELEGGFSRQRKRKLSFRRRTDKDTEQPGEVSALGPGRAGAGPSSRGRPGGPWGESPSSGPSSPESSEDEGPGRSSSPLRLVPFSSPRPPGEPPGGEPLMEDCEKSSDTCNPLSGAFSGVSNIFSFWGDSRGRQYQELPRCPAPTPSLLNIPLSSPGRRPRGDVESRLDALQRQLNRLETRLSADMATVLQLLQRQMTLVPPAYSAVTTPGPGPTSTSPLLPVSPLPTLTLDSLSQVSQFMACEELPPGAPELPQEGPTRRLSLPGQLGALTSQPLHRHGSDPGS

Compound: CC1(C)O[C@H]2CC(=O)OC[C@]23[C@H]2CC[C@@]4(C)[C@H](c5ccoc5)OC(=O)[C@H]5O[C@]54[C@]2(C)OC(=O)C[C@@H]13
Activity (Tobacco mosaic virus [1]): 23.6%
Activity (Tobacco mosaic virus [2]): 13.1%
Activity (Tobacco mosaic virus [3]): 44.8%

Compound: CC(=O)O[C@@H](c1ccoc1)[C@@H]1CCC[C@H](C)C1=O
MIC50 (Staphylococcus aureus [4]): 128 µg/mL (≈ 511 µM)
MIC50 (Staphylococcus aureus [5]): 64 µg/mL (≈ 256 µM)
MIC50 (Staphylococcus aureus [6]): 128 µg/mL (≈ 511 µM)
MIC50 (Staphylococcus aureus [7]): 12 µg/mL (≈ 47.9 µM)
MIC50 (Staphylococcus aureus [8]): 64 µg/mL (≈ 256 µM)

Compound: CC1(C)O[C@H]2CC(=O)OC[C@]23[C@H]2CC[C@@]4(C)[C@H](c5ccoc5)OC(=O)[C@H]5O[C@]54[C@]2(C)[C@@H](OC(=O)C/C=C/c2ccccc2)C[C@@H]13
Activity (Tobacco mosaic virus [1]): 29.3%
Activity (Tobacco mosaic virus [2]): 41.7%
Activity (Tobacco mosaic virus [3]): 65.7%

Compound: CC1(C)O[C@H]2CC(=O)OC[C@]23[C@H]2CC[C@@]4(C)[C@H](c5ccoc5)OC(=O)[C@H]5O[C@]54[C@]2(C)[C@@H](NC(=O)CCN2CCOCC2)C[C@@H]13.Cl
Activity (Mus musculus [9]): 57.35%
Activity (Mus musculus [10]): 58.15%

IC50 (A549): 2.59 µM
IC50 (HCT-116): 1.6 µM
IC50 (MDA-MB-231): 0.64 µM
IC50 (HepG2): 7.1 µM
Compound: C#CCO[C@H]1C=C(C(C)C)[C@]2(CCCC(=O)O2)[C@H]2CC[C@]3(C)C(=CC(=O)O[C@H]3c3ccoc3)[C@]12C
IC50 (ES-2): 0.58 µM
IC50 (HOS): 1.61 µM
IC50 (A 172): 0.78 µM

Compound: C[C@H]1CCC[C@@H]([C@H](O)c2ccoc2)C1=O
MIC50 (Staphylococcus aureus [6]): 512 µg/mL (≈ 2460 µM)
MIC50 (Staphylococcus aureus [7]): 512 µg/mL (≈ 2460 µM)
MIC50 (Staphylococcus aureus [8]): 512 µg/mL (≈ 2460 µM)

Compound: COC(=O)C[C@H](OC(C)=O)[C@]1(C)[C@H]2CC[C@@]3(C)[C@H](c4ccoc4)OC(=O)[C@H]4O[C@]43[C@]2(C)[C@H](OC(C)=O)C[C@H]1C(C)(C)O
IC50 (Plasmodium falciparum): 18.3 µM

Compound: CC1(C)OC(=O)C=C[C@]2(C)[C@H]3CC[C@@]4(C)[C@H](c5ccoc5)OC(=O)[C@H]5O[C@]54[C@]3(C)OC(=O)C[C@@H]12
Activity (Tobacco mosaic virus [1]): 30%
Activity (Tobacco mosaic virus [2]): 17.5%
Activity (Tobacco mosaic virus [3]): 56.5%

MIC (Candida parapsilosis): 34 µM
MIC [11]: 34 µM
MIC (Diutina rugosa): 34 µM
MIC (Cryptococcus neoformans): 34 µM
MIC (Candida tropicalis): 34 µM
MIC (Candida albicans): 34 µM
Compound: CC1(C)O[C@@H](CC(=O)NCc2cn(Cc3ccc(Br)cc3)nn2)[C@@]2(CO)[C@H]1CC(=O)[C@@]1(C)C3=CC(=O)O[C@@H](c4ccoc4)[C@]3(C)CC[C@@H]12

Compound: CC1(C)O[C@H]2CC(=O)OC[C@@]23[C@H]1C[C@H](NC(=O)CCN1CCOCC1)[C@@]1(C)C2=CC(=O)O[C@@H](c4ccoc4)[C@]2(C)CC[C@@H]13.Cl
Activity (Mus musculus [9]): 54.3%
Activity (Mus musculus [10]): 24.04%

Compound: CC(=O)O[C@H]1CC(=O)OC(C)(C)[C@@H]2C[C@@H](OC(C)=O)[C@]3(C)[C@H](CC[C@@]4(C)[C@H](c5ccoc5)OC(=O)[C@H]5O[C@@]534)[C@@]12C
IC50 (Plasmodium falciparum): 16.5 µM

Compound: CC(=O)O[C@H](c1ccoc1)[C@@H]1CCC[C@H](C)C1=O
MIC50 (Staphylococcus aureus [4]): 128 µg/mL (≈ 511 µM)
MIC50 (Staphylococcus aureus [5]): 64 µg/mL (≈ 256 µM)
MIC50 (Staphylococcus aureus [6]): 128 µg/mL (≈ 511 µM)
MIC50 (Staphylococcus aureus [7]): 12 µg/mL (≈ 47.9 µM)
MIC50 (Staphylococcus aureus [8]): 64 µg/mL (≈ 256 µM)

Compound: C[C@H]1CCC[C@@H]([C@@H](O)c2ccoc2)C1=O
MIC50 (Staphylococcus aureus [6]): 512 µg/mL (≈ 2460 µM)
MIC50 (Staphylococcus aureus [7]): 512 µg/mL (≈ 2460 µM)
MIC50 (Staphylococcus aureus [8]): 512 µg/mL (≈ 2460 µM)

Compound: CC1(C)O[C@H]2CC(=O)OC[C@]23[C@H]2CC[C@@]4(C)[C@H](c5coc(C(=O)CCCCN6CCOCC6)c5)OC(=O)[C@H]5O[C@]54[C@]2(C)C(=O)C[C@@H]13
IC50 [12]: > 100 µM

IC50 (A549): 7.62 µM
IC50 (HCT-116): 3.28 µM
IC50 (MDA-MB-231): 5.53 µM
IC50 (HepG2): 8.45 µM
Compound: CC1(C)O[C@H]2CC(=O)OC[C@]23[C@H]2CC[C@]4(C)C(=CC(=O)O[C@H]4c4coc(C(=O)CCl)c4)[C@]2(C)OC(=O)C[C@@H]13
IC50 (ES-2): 3.65 µM
IC50 (HOS): 3.88 µM
IC50 (A 172): 1.71 µM

Compound: CC1(C)O[C@H]2CC(=O)OC[C@]23[C@H]2CC[C@@]4(C)[C@H](c5ccoc5)OC(=O)[C@H]5O[C@]54[C@]2(C)C(=O)C[C@@H]13 [LIMONIN]
Activity (Tobacco mosaic virus [1]): 27.4%
Activity (Tobacco mosaic virus [2]): 5.8%
Activity (Tobacco mosaic virus [3]): 41.9%

Compound: CC1(C)OC(=O)C=C[C@]2(C)[C@H]3CC[C@@]4(C)[C@H](c5ccoc5)OC(=O)[C@H]5O[C@]54[C@]3(C)C(=O)C[C@@H]12 [OBACUNONE]
Activity (Tobacco mosaic virus [1]): 21.5%
Activity (Tobacco mosaic virus [2]): 7.7%
Activity (Tobacco mosaic virus [3]): 35.2%
